Experimental data reported in patent publication US20250136934A1, “PRODUCTION OF INDUCED MIDBRAIN DOPAMINERGIC PROGENITOR CELLS FROM PLURIPOTENT STEM CELLS” (NUWACELL BIOTECHNOLOGIES CO., LTD., priority 2023, published 2025).

Key:
[1] = system: imDAP cells; experiment: Specification of imDAP cells under BMP and TGF-β signaling inhibition (FACS FOXA2+/OTX2+, NKX2.1 qRT-PCR, LMX1A immunostaining); assay type: cell-based, human; conditions: for specification of imDAP cells (FIGS. 13A-13D taken together): LDN193189 at 0.2 μM Day 0 to Day 6 and SB431542 at 50 μM Day 0 to Day 4 or Day 0 to Day 6; for specification of imDAP cells (FIGS. 12A-12C taken together): LDN193189 at 0.5 μM and SB431542 at 20 μM, among all combinations of concentrations tested; for specification of imDAP cells (FIGS. 11A-11C taken together): LDN193189 from D0 to D6 and SB431542 from D0 to D4, among all time windows tested
[2] = system: FOXA2+ imDAP cells; experiment: FACS analysis of FOXA2 expression of imDAP cells derived from hiPSCs; assay type: cell-based, human
Description: • 1. Individualize and collect cells by either Accutase or TrypLE treatment. • 2. Wash cells with 1 ml PBS and pellet cells at 250×g for […]. • 3. Remove supernatant, add ˜200 μl of 4% PFA, mix and fix for 10 min at RT. • 4. Pellet cells at 350×g for 5 min. • 5. Wash cells by 1 ml of FACS buffer and pellet cells at 350×g for 5 min. • 6. Remove supernatant, add 200 μl/tube of FACS buffer/0.1% Triton X, mix for 10 min at RT. • 7. Wash cells by 1 ml of FACS buffer and pellet cells at 350×g for 5 min. • 8. Remove supernatant, add 200 μl/tube of primary antibody diluted in FACS buffer, mix gently, and incubate for 30 min at RT. • 9. Wash cells by 1 ml of FACS buffer and pellet cells at 350×g for 5 min. • 10. Remove supernatant, and add 200 μl of secondary antibody diluted in FACS buffer, mix gently, and incubate for 30 min at RT. • 11. Wash cells by 1 ml of FACS buffer and pellet cells at 300×g for 5 min. • 12. Remove supernatant, add 200 μl of FACS buffer, and run samples on the flow cytometer.
On Day-1, EB formation (Stage 1) was carried out by dissociating hiPSCs (Nuwacell) to form a single-cell suspension and resuspending it in Epic medium (Nuwacell, #RP01001) containing 10 μM Blebbistatin (MCE, #HY-13441) in T25 flasks on a belly dancer and culturing the cells overnight. On Day 0, ventral midbrain floor plate differentiation (Stage 2) was initiated by changing the medium to a Stage 2-1 differentiation medium containing DMEM: F12/B27 (plus Vitamin A) (98:2, v/v) as basal medium and supplemented with 0.2 μM LDN193189, 10 μM SB431542, 1 μg/mL SHH C24II and 1.25 μM CHIR99021 and culturing the cells for 3 Days. From Day 3, the basal medium was changed to DMEM: F12/B27 (minus Vitamin A) (98:2, v/v), and CHIR concentration was boosted to 7.5 μM until Day 10 (Stage 2-2). SB431542 was withdrawn on Day 4, and SHH C24II was withdrawn on Day 8. From Day 10 (Stage 2-3), the medium was changed to a differentiation medium containing DMEM: F12/B27 (minus Vitamin A) (98:2, v/v) as basal medium and supplemented with 0.2 μM LDN193189 and 3 μM CHIR99021. During the cell culture, each of the differentiation media was replaced every day. On Day 16 (at the end of S2-3), EBs were dissociated for single cells and collected for analysis. The cells of each group were stained with FOXA2-PE antibody (BD, #561689), the percentage of FOXA2+ imDAP cells were analyzed by flow cytometry (FIG. 5). The above experiment was repeated for three times and the derived imDAP cells were named as Lot1, Lot2 and Lot3, respectively.
On Day-1, EB formation (Stage 1) was carried out by dissociating hiPSCs (Nuwacell) to form a single-cell suspension and resuspending it in Epic medium (Nuwacell, #RP01001) containing 10 μM Blebbistatin (MCE, #HY-13441) in T25 flasks on a belly dancer and culturing the cells overnight. On Day 0, ventral midbrain floor plate differentiation (Stage 2) was initiated by changing the medium to a Stage 2-1 differentiation medium containing DMEM: F12/B27 (plus Vitamin A) (98:2, v/v) as basal medium and supplemented with 0.2 μM LDN193189, 20 μM SB431542, 1.2 μM CHIR99021, and 1 μg/mL SHH C24II or the combination of SHH agonists including 500 ng/mL SHH C24II, 2 μM Purmorphamine and 10 nM SAG and culturing the cells for 3 days. From Day 3, the basal medium was changed to DMEM: F12/B27 (minus Vitamin A) (98:2, v/v). Cells were exposed to Boost-CHIR concentration of 7.5 μM starting from Day 4 to Day 6 (Stage 2-2), followed by a low CHIR concentration of 1.2 μM (Stage 2-3) until Day 10. […]

| Compound | specification of imDAP cells (FIGS. 13A-13D taken together) [1] | specification of imDAP cells (FIGS. 12A-12C taken together) [1] | specification of imDAP cells (FIGS. 11A-11C taken together) [1] | percentage of cells positive for FOXA2 ([2]; 4-step protocol, SHH agonist in medium Day 0 to Day 10, analysis Day 16) [%] | percentage of FOXA2+ cells ([2]; without Vitamin A throughout differentiation versus Vitamin A only D0-3 or D0-2) |
| --- | --- | --- | --- | --- | --- |
| c1ccc2c(-c3cnn4cc(-c5ccc(N6CCNCC6)cc5)cnc34)ccnc2c1 [LDN193189] | best results | best results | best results |  |  |
| NC(=O)c1ccc(-c2nc(-c3ccc4c(c3)OCO4)c(-c3ccccn3)[nH]2)cc1 [SB431542] | best results | best results | best results |  |  |
| SHH C24II: sonic hedgehog agonist polypeptide, SEQ ID NO: 2 |  |  |  | 85.71 |  |
| Vitamin A |  |  |  |  | higher percentage |
